Results: patent US11434242B2, “Dopamine-b-hydroxylase inhibitors” (BIAL-PORTELA & Cª, S.A., priority 2017, dated 2022)

Tests used:
DβH = target: T1, DβH (Homo sapiens, UniProt P09172); assay: DβH inhibition assay in SK-N-SH cellular homogenates (tyramine to octopamine); assay type: biochemical; conditions: SK-N-SH cell homogenate; for SKNSH (0.1 μM), activity in % of control: inhibitor 0.1 μM; for SKNSH (1 μM), activity in % of control: inhibitor 1 μM
T1 construct: cellular homogenate (75 μg total protein); host or cells: SK-N-SH cells (homogenate)
T1 sequence (P09172 1-617): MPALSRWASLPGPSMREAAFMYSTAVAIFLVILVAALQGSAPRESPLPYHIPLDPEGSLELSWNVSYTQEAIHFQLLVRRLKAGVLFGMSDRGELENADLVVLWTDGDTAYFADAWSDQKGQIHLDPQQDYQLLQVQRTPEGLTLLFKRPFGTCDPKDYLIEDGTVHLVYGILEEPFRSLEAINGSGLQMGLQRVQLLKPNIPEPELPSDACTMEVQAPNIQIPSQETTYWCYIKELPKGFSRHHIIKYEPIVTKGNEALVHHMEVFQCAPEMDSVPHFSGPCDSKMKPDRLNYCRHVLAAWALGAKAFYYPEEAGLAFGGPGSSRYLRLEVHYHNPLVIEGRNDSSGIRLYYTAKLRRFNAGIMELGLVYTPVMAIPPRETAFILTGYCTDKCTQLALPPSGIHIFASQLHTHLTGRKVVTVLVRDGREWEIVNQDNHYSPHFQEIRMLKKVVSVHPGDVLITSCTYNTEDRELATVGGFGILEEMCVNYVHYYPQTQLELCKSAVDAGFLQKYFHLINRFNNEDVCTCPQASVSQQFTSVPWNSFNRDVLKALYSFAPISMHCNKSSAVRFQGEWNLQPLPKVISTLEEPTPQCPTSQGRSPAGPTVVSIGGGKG

[1] = target: T2, Dopamine beta hydroxylase (Homo sapiens, UniProt P09172); assay: Dopamine beta hydroxylase activity in human plasma; assay type: biochemical; conditions: for Plasma (0.1 μM), activity in % of control: inhibitor 0.1 μM; for Plasma (1 μM), activity in % of control: inhibitor 1 μM
T2 construct: 125 μl of plasma; tissue Instituto Português do Sangue Transplantação; host or cells: human plasma from healthy donors
T2 sequence (P09172 40-617 limits assumed): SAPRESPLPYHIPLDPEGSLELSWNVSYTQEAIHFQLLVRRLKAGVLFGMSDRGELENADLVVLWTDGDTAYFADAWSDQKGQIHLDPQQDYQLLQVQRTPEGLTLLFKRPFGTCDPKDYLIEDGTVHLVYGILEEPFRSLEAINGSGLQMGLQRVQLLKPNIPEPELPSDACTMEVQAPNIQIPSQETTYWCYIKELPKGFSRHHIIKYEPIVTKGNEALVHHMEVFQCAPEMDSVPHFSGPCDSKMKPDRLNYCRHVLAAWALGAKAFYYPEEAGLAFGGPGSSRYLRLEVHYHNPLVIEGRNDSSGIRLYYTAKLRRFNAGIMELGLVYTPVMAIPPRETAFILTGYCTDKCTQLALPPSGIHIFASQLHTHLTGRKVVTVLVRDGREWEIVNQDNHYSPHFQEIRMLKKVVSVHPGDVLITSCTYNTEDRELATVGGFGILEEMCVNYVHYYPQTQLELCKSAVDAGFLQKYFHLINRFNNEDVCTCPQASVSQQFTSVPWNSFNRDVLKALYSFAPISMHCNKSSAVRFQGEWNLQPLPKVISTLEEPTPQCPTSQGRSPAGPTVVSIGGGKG
In short: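 Octopamine production from tyramine over 45 min at 37° C, measured photometrically at 330 nm after SCX extraction and periodate oxidation against an octopamine standard curve, indicates plasma DβH activity. Compounds tested at final 10, 100 and 1000 nM in human plasma, pH 5.0 cofactor buffer, 10 min preincubation; results as % of control.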

SKNSH (0.1 μM), activity in % of control (DβH) | SKNSH (1 μM), activity in % of control (DβH) | Plasma (0.1 μM), activity in % of control [1] | Plasma (1 μM), activity in % of control [1] | Compound
11.6 % of control | 0.2 % of control | 18.1 % of control | 0.1 % of control | NC(=O)Cc1[nH]c(=S)n2c1[C@@H]1C[C@]1(c1c(F)ccc(Br)c1F)C2 [Example 57, 2-((5aS,6aR)-5a-(3-bromo-2,6-difluorophenyl)-3-thioxo-2,3,5,5a,6,6a-hexahydrocyclopropa[3,4]pyrrolo[1,2-c]imidazol-1-yl)acetamide]
13.4 % of control | 0 % of control | 26.2 % of control | 2.7 % of control | O=C(O)Cc1[nH]c(=S)n2c1[C@@H]1C[C@]1(c1cc(F)cc(Cl)c1)C2 [Example 53, 2-((5aS,6aR)-5a-(3-chloro-5-fluorophenyl)-3-thioxo-2,3,5,5a,6,6a-hexahydrocyclopropa[3,4]pyrrolo[1,2-c]imidazol-1-yl)acetic Acid]
9.2 % of control | 0.2 % of control | 10.3 % of control | 1.6 % of control | O=C(O)Cc1[nH]c(=S)n2c1[C@@H]1C[C@]1(c1cc(Cl)ccc1F)C2 [Example 52, 2-((5aS,6aR)-5a-(5-chloro-2-fluorophenyl)-3-thioxo-2,3,5,5a,6,6a-hexahydrocyclopropa[3,4]pyrrolo[1,2-c]imidazol-1-yl)acetic Acid]
– | 33.7 % of control | – | – | Fc1ccc(F)c([C@]23C[C@H]2c2c(CCCc4ccccc4)[nH]c(=S)n2C3)c1 [Example 49, (5aS,6aR)-5a-(2,5-difluorophenyl)-1-(3-phenylpropyl)-5,5a,6,6a-tetrahydrocyclopropa[3,4]pyrrolo[1,2-c]imidazole-3(2H)-thione]
51.5 % of control | 8.0 % of control | – | – | OCCc1[nH]c(=S)n2c1[C@@H]1C[C@]1(c1cc(F)ccc1F)C2 [Example 42, (5aS,6aR)-5a-(2,5-difluorophenyl)-1-(2-hydroxyethyl)-5,5a,6,6a-tetrahydrocyclopropa[3,4]pyrrolo[1,2-c]imidazole-3(2H)-thione]
– | 45.6 % of control | – | – | O=C(O)c1[nH]c(=S)n2c1C[C@@H](c1cc(F)cc(F)c1)C2 [Example 43, (S)-6-(3,5-difluorophenyl)-3-thioxo-3,5,6,7-tetrahydro-2H-pyrrolo[1,2-c]imidazole-1-carboxylic Acid]
– | 45.9 % of control | – | – | CCOC(=O)Cc1[nH]c(=S)n2c1C1CC1(c1cccs1)C2 (stereo not drawn) [Example 44, Ethyl 2-(5a-(thiophen-2-yl)-3-thioxo-2,3,5,5a,6,6a-hexahydrocyclopropa[3,4]pyrrolo[1,2-c]imidazol-1-yl)acetate]

Second part, the molecule before the results:

Compound | SKNSH (0.1 μM), activity in % of control (DβH) | SKNSH (1 μM), activity in % of control (DβH) | Plasma (0.1 μM), activity in % of control [1] | Plasma (1 μM), activity in % of control [1]
O=C(O)Cc1[nH]c(=S)n2c1[C@@H]1C[C@]1(c1cc(F)ccc1F)C2 [Example 6, 2-((5aS,6aR)-5a-(2,5-difluorophenyl)-3-thioxo-2,3,5,5a,6,6a-hexahydrocyclopropa[3,4]pyrrolo[1,2-c]imidazol-1-yl)acetic Acid] | 36.9 % of control | 3.7 % of control | – | –
N#CNC(=O)Cc1[nH]c(=S)n2c1C[C@@H](c1c(F)c(F)cc(F)c1F)C2 [Example 19, (S)—N-cyano-2-(6-(2,3,5,6-tetrafluorophenyl)-3-thioxo-3,5,6,7-tetrahydro-2H-pyrrolo[1,2-c]imidazol-1-yl)acetamide] | – | 16.4 % of control | – | –
OCCc1[nH]c(=S)n2c1[C@@H]1C[C@]1(c1cc(F)cc(F)c1)C2 [Example 8, (5aS,6aR)-5a-(3,5-difluorophenyl)-1-(2-hydroxyethyl)-5,5a,6,6a-tetrahydrocyclopropa[3,4]pyrrolo[1,2-c]imidazole-3(2H)-thione] | – | 15.3 % of control | – | –
N#CCc1[nH]c(=S)n2c1[C@@H]1C[C@]1(c1cc(F)ccc1F)C2 [Example 36, 2-((5aS,6aR)-5a-(2,5-difluorophenyl)-3-thioxo-2,3,5,5a,6,6a-hexahydrocyclopropa[3,4]pyrrolo[1,2-c]imidazol-1-yl)acetonitrile] | – | 50.1 % of control | – | –
O=C(O)Cc1[nH]c(=S)n2c1C[C@@H](c1cc(F)cc(F)c1)C2 [Example 11, (S)-2-(6-(3,5-difluorophenyl)-3-thioxo-3,5,6,7-tetrahydro-2H-pyrrolo[1,2-c]imidazol-1-yl)acetic Acid] | – | 28.5 % of control | – | –
CN(Cc1ccccc1)C(=O)Cc1[nH]c(=S)n2c1[C@@H]1C[C@]1(c1cc(F)ccc1F)C2 [Example 37, N-benzyl-2-((5aS,6aR)-5a-(2,5-difluorophenyl)-3-thioxo-2,3,5,5a,6,6a-hexahydrocyclopropa[3,4]pyrrolo[1,2-c]imidazol-1-yl)-N-methylacetamide] | – | 15.7 % of control | – | –
O=C(O)Cc1[nH]c(=S)n2c1C[C@@H](c1c(F)c(F)cc(F)c1F)C2 [Example 10, (S)-2-(6-(2,3,5,6-tetrafluorophenyl)-3-thioxo-3,5,6,7-tetrahydro-2H-pyrrolo[1,2-c]imidazol-1-yl)acetic Acid] | 46.4 % of control | 2.1 % of control | – | –
O=Cc1[nH]c(=S)n2c1C[C@@H](c1cc(F)cc(F)c1)C2 [Example 45, (S)-6-(3,5-difluorophenyl)-3-thioxo-3,5,6,7-tetrahydro-2H-pyrrolo[1,2-c]imidazole-1-carbaldehyde] | – | 46.8 % of control | – | –
CN(CCc1[nH]c(=S)n2c1[C@@H]1C[C@]1(c1cc(F)ccc1F)C2)Cc1ccccc1 [Example 40, (5aS,6aR)-1-(2-(benzyl(methyl)amino)ethyl)-5a-(2,5-difluorophenyl)-5,5a,6,6a-tetrahydrocyclopropa[3,4]pyrrolo[1,2-c]imidazole-3(2H)-thione] | – | 29.3 % of control | – | –
CCCCN(C)CCc1[nH]c(=S)n2c1[C@@H]1C[C@]1(c1cc(F)ccc1F)C2.Cl [Example 39, (5aS,6aR)-1-(2-(butyl(methyl)amino)ethyl)-5a-(2,5-difluorophenyl)-5,5a,6,6a-tetrahydrocyclopropa[3,4]pyrrolo[1,2-c]imidazole-3(2H)-thione Hydrochloride] | – | 29.8 % of control | – | –
COC(=O)Cc1[nH]c(=S)n2c1[C@@H]1C[C@]1(c1cc(F)cc(F)c1)C2 [Example 5, Methyl 2-((5aS,6aR)-5a-(3,5-difluorophenyl)-3-thioxo-2,3,5,5a,6,6a-hexahydrocyclopropa[3,4]pyrrolo[1,2-c]imidazol-1-yl)acetate] | – | 19.9 % of control | – | –
Fc1ccc(F)c([C@]23C[C@H]2c2c(CCc4ccccc4)[nH]c(=S)n2C3)c1 [Example 48, (5aS,6aR)-5a-(2,5-difluorophenyl)-1-phenethyl-5,5a,6,6a-tetrahydrocyclopropa[3,4]pyrrolo[1,2-c]imidazole-3(2H)-thione] | – | 48.4 % of control | – | –
CCCCN(C)C(=O)Cc1[nH]c(=S)n2c1[C@@H]1C[C@]1(c1cc(F)ccc1F)C2 [Example 38, N-butyl-2-((5aS,6aR)-5a-(2,5-difluorophenyl)-3-thioxo-2,3,5,5a,6,6a-hexahydrocyclopropa[3,4]pyrrolo[1,2-c]imidazol-1-yl)-N-methylacetamide] | – | 20.9 % of control | – | –
NC(=O)Cc1[nH]c(=S)n2c1[C@@H]1C[C@]1(c1cc(F)cc(F)c1)C2 [Example 33, 2-((5aS,6aR)-5a-(3,5-difluorophenyl)-3-thioxo-2,3,5,5a,6,6a-hexahydrocyclopropa[3,4]pyrrolo[1,2-c]imidazol-1-yl)acetamide] | – | 33.4 % of control | – | –
